Reference: the NIST ThermoML archive (doi:10.1016/j.fluid.2007.04.014)
Numbers after ± are expanded uncertainties.

Legend:
[1] = Crystal; Closed cell (Static) method
[2] = Solid-liquid equilibrium temperature; settings: Crystal, Closed cell (Static) method

CCCCCCCCCCCCCCCCC [heptadecane]
Settings | Normal melting temperature [°C]
[1] | 22.20 ± 0.4

[2]
Settings | Solid-liquid equilibrium temperature [K]
20800 kPa | 299.75 ± 0.46
40100 kPa | 304.05 ± 0.48
60100 kPa | 308.3 ± 0.49
80100 kPa | 312.4 ± 0.5
99300 kPa | 316.5 ± 0.51
